Values of other authors in article PMC11088877, “AMP-activated protein kinase can be allosterically activated by ADP but AMP remains the key activating ligand” (Biochemical Journal, 2024).

Target: bacterially expressed AMPK heterotrimers (γ subunit CBS sites)
Details: in the presence of Mg2+ and staurosporine; read-out: estimated Kd at the CBS3 site; cited from earlier work

For `Nc1ncnc2c1ncn2[C@@H]1O[C@H](COP(=O)(O)OP(=O)(O)OP(=O)(O)O)[C@@H](O)[C@H]1O` [ATP], the Kd is listed as 100 to 500 µM.
